These are literature values, as cited in PMC6370995, “Phase I study of PF‐04895162, a Kv7 channel opener, reveals unexpected hepatotoxicity in healthy subjects, but not rats or monkeys: clinical evidence of disrupted bile acid homeostasis” (Pharmacology Research & Perspectives, 2019).

For one data set, the system named is patients. On the set-up: method as in PMID 27178047. As to conditions: 50 mg once daily, Phase 3 clinical study; cited from earlier work.
Another data set deals with BSEP. More on the design: method as in PMID 11309550. To be noted: cited from earlier work.

`Cc1cc(OCCCS(C)(=O)=O)cc(C)c1-c1cccc(COc2ccc3c(c2)OC[C@H]3CC(=O)O)c1` [TAK‐875]: the clinical liver finding result in the data set on patients is recorded as “clinical hepatotoxicity in a small number of patients”.

For the compound `COc1ccccc1Oc1c(NS(=O)(=O)c2ccc(C(C)(C)C)cc2)nc(-c2ncccn2)nc1OCCO` [bosentan], in the data set on BSEP, the BSEP inhibition potency is given as ~ 12 μmol/L.
